The assay has as its target C. parvum PI(4)K (Cryptosporidium parvum, UniProt Q5CVD3). The assay can be described thus: CpPI(4)K enzymatic assay (Transcreener ADP2 FP). It counts as biochemical. From the text: The full-length coding sequence of C. parvum PI(4)K (cgd8_4500, 1114 amino acids) was codon-optimized for baculovirus expression, synthesized and cloned into pFastBac-HTb (Invitrogen 10584-027) in frame with the amino-terminal polyhistidine tag using the BamHI and Hindlll restriction sites. Recombinant pFastBacHTb-CpPI(4)K bacmid clones were generated by site-specific transposition in E. coli DH10Bac (Invitrogen 10361-012). The bacmid sequence was confirmed by direct DNA sequencing to confirm a lack of mutations across the whole gene. The subsequent steps for bacmid isolation, transfection and selection of the recombinant viruses were performed according to the manufacturer's protocol (Bac-to-Bac system #10359, Invitrogen).
SF9 cells, cultured in SF-900 III serum-free medium, were transfected with recombinant baculovirus at 1/200 (v/v) and incubated at 27° C. for 72 h. The pellets were collected after centrifugation and re-suspended in cell lysis buffer (20 mM Tris-HCl, pH 7.5, 300 mM NaCl, 1 mM DTT, 20 mM imidazole, 0.01% Triton X-100 and 1× complete protease inhibitor cocktail without EDTA (Roche Diagnostics 04693116001)). The cell suspension was lysed by sonication and the clarified supernatant was loaded onto a 1 ml HisTrap affinity column (GE Healthcare) pre-equilibrated with buffer A (20 mM Tris-HCl, pH 7.5, 300 mM NaCl, 1 mM DTT, 20 mM Imidazole, and 1× complete protease inhibitor cocktail without EDTA). The column was washed with buffer B (buffer A containing 45 mM imidazole) and the bound protein of interest was eluted with buffer C (buffer A with 90 mM imidazole). The fractions containing CpPI(4)K were pooled, concentrated using Amicon Ultra-15 and purified by a gel-filtration column (Hi-Load 26/60 Superdex 200, GE Healthcare) equilibrated with 20 mM Tris, pH 7.5, 300 mM NaCl, 1 mM DTT and 1× protease inhibitor cocktail without EDTA. The concentrations of the purified protein (Mw 132.39 kda) was determined by using the protein molar extinction coefficient (ε280 nm=133,810 M^−1 cm^−1). Aliquots were flash frozen in liquid nitrogen and immediately stored at −80° C.
The CpPI(4)K enzymatic assay was performed as described earlier with a some modifications (McNamara et al., 2013). Briefly, L-α-phosphatidylinositol (Avanti Polar Lipid 840046), dissolved in 3% n-octylglucoside (Roche Diagnostics 10634425001), was used as the lipid substrate for the PI(4)K activity assay. CpPI(4)K was assayed using Transcreener ADP2 FP detection kit (BellBrook 3010) in a black, solid 384-well plate (Corning 3575). The final assay volume was 10 μl and contained 3 nM of the respective CpPI(4)K construct in 10 mM Tris, pH 7.5, 1 mM DTT, 3 μM ATP, 5 mM Mn2+, 0.05% Triton X-100 and 10 μM phosphatidylinositol/octylglucoside. The enzyme reaction was performed for 50 minutes at room temperature and was stopped by adding 10 μl of detection mix containing 1× stop buffer (50 mM HEPES, pH7.5, 400 mM NaCl, 20 mM EDTA, and 0.02% Brij-35), 2 nM AMP Alexa Fluor 633 tracer, and 20 μg ml^−1 ADP antibody. Fluorescence polarization measurements were performed on the Infinite M1000 plate reader (Tecan) with λex=635 nm and λem=680 nm (20-nm bandwidth). IC50 values were calculated using Graphpad Prism software.
The inhibitory concentration (IC50) of selected compounds on the C. parvPI(4)K activity is provided in the third column [Cp_PI4K_enz IC50 (μM)] of Table II.
Chain of C. parvum PI(4)K (Q5CVD3 entry or part of it): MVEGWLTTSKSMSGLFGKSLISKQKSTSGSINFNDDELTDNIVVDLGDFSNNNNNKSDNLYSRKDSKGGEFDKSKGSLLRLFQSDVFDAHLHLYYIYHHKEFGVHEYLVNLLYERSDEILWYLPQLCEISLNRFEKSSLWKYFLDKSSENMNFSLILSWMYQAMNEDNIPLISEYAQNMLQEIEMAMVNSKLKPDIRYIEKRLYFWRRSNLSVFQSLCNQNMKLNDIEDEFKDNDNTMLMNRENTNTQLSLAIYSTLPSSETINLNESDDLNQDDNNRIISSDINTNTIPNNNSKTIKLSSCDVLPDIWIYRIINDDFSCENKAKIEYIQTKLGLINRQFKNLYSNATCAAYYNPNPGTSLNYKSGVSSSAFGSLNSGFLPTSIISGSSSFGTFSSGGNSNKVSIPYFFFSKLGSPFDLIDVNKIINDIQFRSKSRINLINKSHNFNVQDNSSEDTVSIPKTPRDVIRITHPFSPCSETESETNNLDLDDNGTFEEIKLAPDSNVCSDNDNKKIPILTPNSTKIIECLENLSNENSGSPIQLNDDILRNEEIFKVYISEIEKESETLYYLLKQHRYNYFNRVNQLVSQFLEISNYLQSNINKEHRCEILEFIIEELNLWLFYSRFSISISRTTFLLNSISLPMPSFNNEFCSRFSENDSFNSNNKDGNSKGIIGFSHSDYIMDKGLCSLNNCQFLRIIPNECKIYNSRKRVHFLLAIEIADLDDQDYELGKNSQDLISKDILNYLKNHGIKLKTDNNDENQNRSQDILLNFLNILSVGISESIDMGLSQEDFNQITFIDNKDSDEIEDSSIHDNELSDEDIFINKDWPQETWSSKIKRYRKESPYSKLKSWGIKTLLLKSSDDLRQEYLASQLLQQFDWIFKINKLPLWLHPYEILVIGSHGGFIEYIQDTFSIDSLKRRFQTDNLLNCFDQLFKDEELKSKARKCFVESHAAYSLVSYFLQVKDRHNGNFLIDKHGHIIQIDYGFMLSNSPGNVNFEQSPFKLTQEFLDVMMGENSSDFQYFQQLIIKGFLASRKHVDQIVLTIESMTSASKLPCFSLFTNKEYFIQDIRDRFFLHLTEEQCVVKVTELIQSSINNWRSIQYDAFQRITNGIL
Consider `CCN(C(=O)c1ccn2ncc(-c3ccc(C(=O)NC)cc3)c2c1)c1ccc(C#N)cn1` [Example 90], for which the IC50 amounted to 8 nM.

Turning to `CNC(=O)c1ccc(-c2cnn3ccc(C(=O)N(c4ccc(C#N)cn4)C(C)C)cc23)cc1` [Example 91], 21 nM corresponded to half-maximal inhibition (IC50).

With `CNC(=O)c1ccc(-c2cnn3ccc(C(=O)N(NC)c4ccc(C#N)cc4)cc23)cn1` [Example 92], the IC50 is 57 nM.

Consider `CNC(=O)c1ccc(-c2cnn3ccc(N(C)C(=O)c4ccc(C#N)cn4)cc23)cc1` [Example 94], for which 117 nM corresponded to half-maximal inhibition (IC50).

Regarding `CCN(C(=O)c1ccn2ncc(-c3ccc(C(=O)NC)cc3)c2c1)c1ccc(C(F)(F)F)cn1` [Example 96], the IC50 amounted to 3 nM.

In the case of `CNC(=O)c1ccc(-c2cnn3ccc(C(=O)N(c4ccc(C#N)cn4)C4CCC4)cc23)cc1` [Example 112], the IC50 was 72 nM.

As for `N#Cc1ccc(N(C(=O)c2ccn3ncc(-c4ccc(C(N)=O)cc4)c3c2)C2CC2)nc1` [Example 120], the IC50 came to 40 nM.

Regarding `CC(C)NC(=O)c1ccc(-c2cnn3ccc(C(=O)N(c4ccc(C#N)cn4)C4CC4)cc23)cc1` [Example 121], the IC50 was 860 nM.

With `N#Cc1ccc(N(C(=O)c2ccn3ncc(-c4ccc(C(=O)NC5CC5)cc4)c3c2)C2CC2)nc1` [Example 123], half-maximal inhibition (IC50) required 38 nM.

`CNC(=O)c1ccc(-c2cnn3ccc(C(=O)N(c4ccc(Cl)cn4)C4CC4)cc23)cc1` [Example 124]: the IC50 is 14 nM.

The compound `CCNC(=O)c1ccc(-c2cnn3ccc(C(=O)N(c4ccc(C#N)cn4)C4CC4)cc23)cc1` [Example 127] had an IC50 of 3 nM.

`N#Cc1ccc(N(C(=O)c2ccn3ncc(-c4ccc(C(=O)NC5COC5)cc4)c3c2)C2CC2)nc1` [Example 131] gave a half-maximal inhibitory concentration (IC50) of 329 nM.

Take `CNC(=O)c1ccc(-c2cnn3ccc(C(=O)N(c4ccc(C#N)c(OC)n4)C4CC4)cc23)cc1` [Example 149]: the IC50 was 4 nM.

In the case of `CCN(C(=O)c1ccn2ncc(-c3ccc(C(=O)NC)nc3)c2c1)c1ccc(C#N)cn1` [Example 150], the midpoint of inhibition, the IC50, lay at 219 nM.

Regarding `CNC(=O)c1ccc(-c2cnn3ccc(C(=O)N(c4ccc(C(F)(F)F)cn4)C(C)C)cc23)cc1` [Example 153], the IC50 is 6 nM.

`CNC(=O)c1ccc(-c2cnn3ccc(C(=O)N(c4ccc(C(F)(F)F)cn4)C4CCC4)cc23)cc1` [Example 160] showed an IC50 of 8 nM.

In general, IC50 refers to the point on the concentration scale where inhibition reaches its midpoint. Low readings indicate greater potency, high ones weaker potency.

These data come from patent publication US20190030009A1, “COMPOUNDS AND COMPOSITIONS FOR THE TREATMENT OF CRYPTOSPORIDIOSIS” (Novartis AG, priority 2016, published 2019).
